Laboratory results reported in PubChem BioAssay (NCI).
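Interpolation was linear, between the two tested concentrations surrounding the appropriate level; five concentrations were tested over 48 hours in 96-well plates. TGI denotes the concentration required for complete inhibition of growth.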

What was measured:
Test in all cases: inhibition of tumour cell growth, NCI panel, 48 h
786-0 renal = test system: 786-0 renal
A498 renal = test system: A498 renal
A549 NSCLC = test system: A549 NSCLC
ACHN renal = test system: ACHN renal
CAKI-1 renal = test system: CAKI-1 renal
CCRF-CEM leukemia = test system: CCRF-CEM leukemia
COLO 205 colon = test system: COLO 205 colon
DU-145 prostate = test system: DU-145 prostate
EKVX NSCLC = test system: EKVX NSCLC
HCC-2998 colon = test system: HCC-2998 colon
HCT-116 colon = test system: HCT-116 colon
HCT-15 colon = test system: HCT-15 colon
HL-60(TB) leukemia = test system: HL-60(TB) leukemia
HOP-62 NSCLC = test system: HOP-62 NSCLC
HOP-92 NSCLC = test system: HOP-92 NSCLC
HT29 colon = test system: HT29 colon
IGROV1 ovarian = test system: IGROV1 ovarian
K-562 leukemia = test system: K-562 leukemia
KM12 colon = test system: KM12 colon
LOX IMVI melanoma = test system: LOX IMVI melanoma
M14 melanoma = test system: M14 melanoma
MALME-3M melanoma = test system: MALME-3M melanoma
MCF7 breast = test system: MCF7 breast
MDA-MB-231 breast = test system: MDA-MB-231 breast
MDA-MB-435 = test system: MDA-MB-435
MDA-N = test system: MDA-N
MOLT-4 leukemia = test system: MOLT-4 leukemia
NCI-H226 lung = test system: NCI-H226 lung
NCI-H23 lung = test system: NCI-H23 lung
NCI-H522 lung = test system: NCI-H522 lung
NCI/ADR-RES ovarian = test system: NCI/ADR-RES ovarian
OVCAR-3 ovarian = test system: OVCAR-3 ovarian
OVCAR-4 ovarian = test system: OVCAR-4 ovarian
OVCAR-5 ovarian = test system: OVCAR-5 ovarian
OVCAR-8 ovarian = test system: OVCAR-8 ovarian
PC-3 prostate = test system: PC-3 prostate
RPMI-8226 leukemia = test system: RPMI-8226 leukemia
SF-295 CNS = test system: SF-295 CNS
SF-539 CNS = test system: SF-539 CNS
SK-MEL-2 melanoma = test system: SK-MEL-2 melanoma
SK-MEL-28 melanoma = test system: SK-MEL-28 melanoma
SK-MEL-5 melanoma = test system: SK-MEL-5 melanoma
SK-OV-3 ovarian = test system: SK-OV-3 ovarian
SN12C renal = test system: SN12C renal
SNB-19 CNS = test system: SNB-19 CNS
SNB-75 CNS = test system: SNB-75 CNS
SW-620 colon = test system: SW-620 colon
T-47D breast = test system: T-47D breast
TK-10 renal = test system: TK-10 renal
U251 CNS = test system: U251 CNS
UACC-257 melanoma = test system: UACC-257 melanoma
UACC-62 melanoma = test system: UACC-62 melanoma
UO-31 renal = test system: UO-31 renal

Measured: TGI

Cc1[nH]c(=O)nc2sc(=NC3CCCCC3)n(C3CCCCC3)c(=O)c12
> 100 µM: 786-0 renal | A498 renal | A549 NSCLC | ACHN renal | CAKI-1 renal | CCRF-CEM leukemia | COLO 205 colon | DU-145 prostate | EKVX NSCLC | HCC-2998 colon | HCT-116 colon | HCT-15 colon | HL-60(TB) leukemia | HOP-62 NSCLC | HOP-92 NSCLC | HT29 colon | IGROV1 ovarian | K-562 leukemia | KM12 colon | LOX IMVI melanoma | M14 melanoma | MALME-3M melanoma | MCF7 breast | MDA-MB-231 breast | MDA-MB-435 | MDA-N | MOLT-4 leukemia | NCI-H226 lung | NCI-H23 lung | NCI-H522 lung | NCI/ADR-RES ovarian | OVCAR-3 ovarian | OVCAR-4 ovarian | OVCAR-5 ovarian | OVCAR-8 ovarian | PC-3 prostate | RPMI-8226 leukemia | SF-295 CNS | SF-539 CNS | SK-MEL-2 melanoma | SK-MEL-28 melanoma | SK-MEL-5 melanoma | SK-OV-3 ovarian | SN12C renal | SNB-19 CNS | SNB-75 CNS | SW-620 colon | T-47D breast | TK-10 renal | U251 CNS | UACC-257 melanoma | UACC-62 melanoma | UO-31 renal
